pIC50: −log10 of the molar value.
Target: T1, human platelet phospholipase A2 (Homo sapiens, UniProt P14555)
T1 construct: a preparation of human platelet phospholipase A2; from tissue; host or cells: human platelets
T1 sequence (P14555 21-144): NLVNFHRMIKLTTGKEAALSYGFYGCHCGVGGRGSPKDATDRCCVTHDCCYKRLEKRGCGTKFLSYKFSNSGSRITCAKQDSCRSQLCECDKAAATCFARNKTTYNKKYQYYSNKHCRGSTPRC
Assay: Inhibition of human platelet phospholipase A2 (14C-oleate E. coli substrate)
Assay type: biochemical
Settings: for pIC50: pH 7.0, 37°, 60 min incubation, read-out: Inhibition of PLA2, IC50; for inhibition at 50 µM: read-out: Inhibition of PLA2, % Inhibition @ 50 μM; for inhibition at 10 µM: @ 10 μM (values marked *), read-out: Inhibition of PLA2, % Inhibition @ *10 μM
Procedure: The activity of the compounds of the invention against phospholipase A2 is determined using a preparation of human platelet phospholipase A2 with a specific activity of 180 nmol/min/mg as the enzyme source. Polypropylene 15-ml test tubes are utilized as the reaction vessels. All drug samples are run in duplicate, with "blank" and "control" (no test compound) groups run in triplicate. […] Test compounds are dissolved in DMSO, and diluted to a projected final concentration of either 50 or 10 μM in 550 μl HEPES buffer at pH 7.0. A 1:7 dilution of human platelet PLA2 in HEPES buffer (5 μl) is added to each test tube, followed by gentle vortexing for 3 seconds. The reaction tubes containing drug, buffer, and enzyme are preincubated for 15 min at 37°, followed by the addition of 25 μl of ^14 C-oleate E. coli substrate. Details regarding this substrate may be found in a publication by S. Ghosh and R. Franson, Biochem. Cell. Biol., 70, 43 (1992), and references therein.
The tubes are immediately vortexed at moderate speed for 3 sec, followed by a 60 min incubation at 37° in a shaking water bath. The reaction is stopped by the addition of 3 ml of a 1:2 chloroform-methanol mixture. Additional water (1.5 ml) and chloroform (1.0 ml) are added, followed by vortexing. The lower phase is removed with a polypropylene transfer pipette, and transferred to a 13×100 mm polypropylene test tube. The organic solvent is evaporated with a stream of nitrogen, the residue is redissolved in 30 μl of a 9:1 chloroform-methanol mixture, and the solution is spotted on a channeled polyester-backed silica gel TLC plate, such as those available under the trade name PE SIL G available from Whatman Inc, Clifton, N.J.
The plate is developed with an 80:20:1 mixture of petroleum ether-diethyl ether-acetic acid. […] The plate is scored above the origin, cut along the score with scissors, and the reactant (origin) and product portions of each channel are put into separate scintillation vials. To each vial is added a scintillation cocktail (15 ml), preferably that sold under the trademark ECOLUME by ICN Biomedicals, Irvine Calif. The vials are shaken vigorously for 5 sec, and the radioactive ^14 C in each vial is measured with a scintillation counter, which provides the counts-per-minute (cpm) for each sample. The obtained cpm values are corrected for the "blank" values.
The percentage of phospholipid hydrolyzed is calculated by the formula:
Phospholipid converted=100×cpm products / (cpm products+cpm
The inhibition of phospholipase A2 by the test compounds is expressed as a percent inhibition relative to the control group:
% Inhibition=[…]

Row | Compound | pIC50 | inhibition at 50 µM [%] | inhibition at 10 µM [%]
1 | CC1=C(C/C=C(\C)COc2ccc(SC3=CC(=O)OC3O)cc2)C(C)(C)CCC1 (stereo not shown) [Example 67, (E)-5-Hydroxy-4-(4-(2-methyl-4-(2,6,6-trimethyl-1-cyclohexen-1-yl)-2-butenyloxy)phenylthio)-2(5H)-furanone] | 6.30 | 98 | –
2 | CCCCCCCC(=O)c1ccc(C2=CC(=O)OC2O)cc1 (stereo not shown) [Example 32, 5-Hydroxy-4-(4-octanoylphenyl)-2(5H)-furanone] | – | 55 | –
3 | CCCCCCCCNS(=O)(=O)c1ccc(C2=CC(=O)OC2O)cc1 (stereo not shown) [Example 45, 5-Hydroxy-4-(4-(octylaminosulfonyl)phenyl)-2(5H)-furanone] | – | 13 | –
4 | O=C1C=C(Sc2ccc(Br)cc2)C(O)O1 (stereo not shown) [Example 68, 5-Hydroxy-4-((4-bromophenyl)thio)-2(5H)-furanone] | – | 0 | –
5 | CCCCCCCCOc1ccc(C2=CC(=O)OC2O)cc1OC (stereo not shown) [Example 6, 5-Hydroxy-4-(3-methoxy-4-octyloxyphenyl)-2(5H)furanone] | – | – | 27
6 | CCCCCCCCOc1cccc(C2=CC(=O)OC2O)c1 (stereo not shown) [Example 3, 5-Hydroxy-4-(3-octyloxyphenyl)-2(5H)furanone] | – | 39 | –
7 | O=C1C=C(c2ccc(C#Cc3ccc(C(F)(F)F)cc3)cc2)C(O)O1 (stereo not shown) [Example 58, 5-Hydroxy-4-(4-(2-(4-(trifluoromethyl)phenyl)ethynyl)phenyl)-2(5H)-furanone] | – | – | 24
8 | CCCCCCCCOc1ccc(C2=CC(=O)OC2O)cc1[N+](=O)[O-] (stereo not shown) [Example 7, 5-Hydroxy-4-(3-nitro-4-octyloxyphenyl)-2(5H)furanone] | 5.03 | – | 67
9 | COc1ccc(C#Cc2ccc(C3=CC(=O)OC3O)cc2)cc1 (stereo not shown) [Example 61, 5-Hydroxy-4-(4-(2-(4-methoxyphenyl)ethynyl)phenyl)-2(5H)-furanone] | – | 33 | –
10 | CC(C)c1cc(C2=CC(=O)OC2O)cc(C(C)C)c1O (stereo not shown) [Example 47, 5-Hydroxy-4-(3,5-bis(1-methylethyl)-4-hydroxyphenyl)-2(5H)-furanone] | – | – | 2
11 | O=C1C=C(c2ccc(C#Cc3ccc4ccccc4c3)cc2)C(O)O1 (stereo not shown) [Example 56, 5-Hydroxy-4-(4-(2-(2-naphthyl)ethynyl)phenyl)-2(5H)-furanone] | – | 59 | –
12 | CCCCCCCCCCCCCOc1ccc(SC2=CC(=O)OC2O)cc1 (stereo not shown) [Example 65, 5-Hydroxy-4-(4-(tridecyloxy)phenylthio)-2(5H)-furanone] | – | – | 98
13 | C=CCOc1cccc(C2=CC(=O)OC2O)c1 (stereo not shown) [Example 11, 5-Hydroxy-4-[(3-allyloxy)phenyl]-2(5H)furanone] | – | 0 | –
14 | CCCCCCCCOc1ccccc1C1=CC(=O)OC1O (stereo not shown) [Example 8, 5-Hydroxy-4-(2-octyloxyphenyl)-2(5H)furanone] | – | – | 21
15 | CCCCCCCCSc1nc(C2=CC(=O)OC2O)cs1 (stereo not shown) [Example 70, 5-Hydroxy-4-(2-(octylthio)-4-thiazolyl)-2(5H)-furanone] | – | 70 | –
16 | O=C1C=C(c2ccc(C#Cc3cc4ccccc4s3)cc2)C(O)O1 (stereo not shown) [Example 62] | – | – | 33
17 | O=C1C=C(c2ccc(C#Cc3cccc([N+](=O)[O-])c3)cc2)C(O)O1 (stereo not shown) [Example 59, 5-Hydroxy-4-(4-(2-(3-nitrophenyl)ethynyl)phenyl)-2(5H)-furanone] | – | – | 6
18 | CCCCCCCC(=O)Nc1ccc(C2=CC(=O)OC2O)cc1 (stereo not shown) [Example 21, 5-Hydroxy-4-(4-(1-oxooctylamino)phenyl)-2(5H)furanone] | – | 0 | –
19 | O=C1C=C(c2ccc(COc3ccc4ccccc4c3)cc2)C(O)O1 (stereo not shown) [Example 52, 5-Hydroxy-4-(4-(2-naphthyloxymethyl)phenyl)-2(5H)-furanone] | 4.30 | 51 | –
20 | CCCCCCCCOc1ccc(C2=CC(=O)OC2O)cn1 (stereo not shown) [Example 69, 5-Hydroxy-4-(6-octyloxy-3-pyridyl)-2(5H)-furanone] | – | 52 | –

Row | Compound | pIC50 | inhibition at 50 µM [%] | inhibition at 10 µM [%]
21 | O=C1C=C(c2ccc(CC(O)COc3ccc4ccccc4c3)cc2)C(O)O1 (racemic) [Example 51, 5-Hydroxy-4-(4-(2-hydroxy-3-(2-naphthyloxy)propyl)phenyl)-2(5H)-furanone] | – | 30 | –
22 | O=C1C=C(c2ccc(OCCCc3ccccc3)cc2)C(O)O1 (stereo not shown) [Example 10, 5-Hydroxy-4-[4-(3-phenylpropyloxy)phenyl]-2(5H)furanone] | – | 17 | –
23 | O=C1C=C(c2ccc(Oc3ccc4ccccc4c3)cc2)C(O)O1 (stereo not shown) [Example 50, 5-Hydroxy-4-(4-(2-naphthyloxy)phenyl)-2(5H)-furanone] | 4.30 | 52 | –
24 | CC(C)(C)C#Cc1ccc(C2=CC(=O)OC2O)cc1 (stereo not shown) [Example 53, 5-Hydroxy-4-(4-(3,3-dimethyl-1-butynyl)phenyl)-2(5H)-furanone] | 4.38 | 53 | –
25 | CCCCCCCCOc1ccc(C2=CC(=O)OC2O)c(OC)c1 (stereo not shown) [Example 5, 5-Hydroxy-4-(2-methoxy-4-octyloxyphenyl)-2(5H)furanone] | – | – | 58
26 | O=C1C=C(c2ccc(C#Cc3ccc([N+](=O)[O-])cc3)cc2)C(O)O1 (stereo not shown) [Example 60, 5-Hydroxy-4-(4-(2-(4-nitrophenyl)ethynyl)phenyl)-2(5H)-furanone] | – | – | 11
27 | CCCCCOc1ccc(SC2=CC(=O)OC2O)cc1 (stereo not shown) [Example 66, 5-Hydroxy-4-(4-(pentyloxy)phenylthio)-2(5H)-furanone] | – | – | 48
28 | O=C1C=C(c2cccc(C#Cc3ccccc3)c2)C(O)O1 (stereo not shown) [Example 63, 5-Hydroxy-4-(3-(2-phenylethynyl)phenyl)-2(5H)-furanone] | – | – | 45
29 | O=C1C=C(c2ccc(C(=O)c3ccccc3F)cc2)C(O)O1 (stereo not shown) [Example 31, 5-Hydroxy-4-(4-(2-fluorobenzoyl)phenyl)-2(5H)-furanone] | – | 6 | –
30 | CC1=C(C/C=C(\C)CCCOc2ccc(C3=CC(=O)OC3O)cc2)C(C)(C)CCC1 (stereo not shown) [Example 26, (E)-5-Hydroxy-4-(4-(4-methyl-6-(2,6,6-trimethyl-1-cyclohexen-1-yl)-4-hexenyloxy)phenyl)-2(5H)-furanone] | – | – | 92
31 | O=C1C=C(c2ccc(C#Cc3cccc4ccccc34)cc2)C(O)O1 (stereo not shown) [Example 57, 5-Hydroxy-4-(4-(2-(1-naphthyl)ethynyl)phenyl)-2(5H)-furanone] | 5.08 | 69 | –
32 | CCCCCCCCOc1ccc(C2=CC(=O)OC2O)c(Cl)c1 (stereo not shown) [Example 2, 5-Hydroxy-4-(2-chloro-4-octyloxyphenyl)-2(5H)furanone] | 5.12 | – | 69
33 | O=C1C=C(c2ccc(C(=O)c3ccc4ccccc4c3)cc2)C(O)O1 (stereo not shown) [Example 29, 5-Hydroxy-4-(4-(2-naphthoyl)phenyl)-2(5H)-furanone] | 4.30 | 59 | –
34 | CCCCCCCCN(C(C)=O)c1ccc(C2=CC(=O)OC2O)cc1 (stereo not shown) [Example 25, 5-Hydroxy-4-(4-(N-acetyl-N-octylamino)phenyl)-2(5H)furanone] | – | – | 40
35 | CCCCCCCCOc1ccc(C2=CC(=O)OC2O)cc1Cl (stereo not shown) [Example 4, 5-Hydroxy-4-(3-chloro-4-octyloxyphenyl)-2(5H)furanone] | 5.27 | – | 71
36 | CCCCCCCC(=O)Nc1cccc(C2=CC(=O)OC2O)c1 (stereo not shown) [Example 20, 5-Hydroxy-4-(3-(1-oxooctylamino)phenyl)-2(5H)furanone] | – | 0 | –
37 | O=C1C=C(c2ccc(Cc3ccccc3)cc2)C(O)O1 (stereo not shown) [Example 49, 5-Hydroxy-4-(4-(phenylmethyl)phenyl)-2(5H)-furanone] | – | 5 | –
38 | CCCCCCCCS(=O)(=O)c1ccc(C2=CC(=O)OC2O)cc1 (stereo not shown) [Example 22, 5-Hydroxy-4-(4-octylsulfonyl)phenyl-2(5H)furanone] | – | – | 49
39 | CCCCCCCCOc1ccc(C2=CC(=O)OC2O)cc1NC(C)=O (stereo not shown) [Example 9, 5-Hydroxy-4-(3-acetamido-4-octyloxyphenyl)-2(5H)furanone] | – | – | 7
40 | CCCCSc1ccc(C2=CC(=O)OC2O)cc1 (stereo not shown) [Example 24, 5-Hydroxy-4-(4-(butylthio)phenyl)-2(5H)furanone] | – | 0 | –

Reference: patent US5464865A, “4-aryl- and 4-arylthio-5-hydroxy-2(5H)-furanones as inhibitors of phospholipase A2” (Ortho Pharmaceutical Corporation, priority 1993, dated 1995)
